Where a SMILES comes first, the peptide text is derived from it. [ ]: non-standard residue; d: D form. Bip(4'-COOH) = N[C@@H](Cc1ccc(-c2ccc(C(=O)O)cc2)cc1)C(=O)O; 1Nal(3S-Me) = C[C@@H](c1cccc2ccccc12)[C@H](N)C(=O)O; Ala(indazol-1-yl) = N[C@@H](Cn1ncc2ccccc21)C(=O)O; Ala(indolin-1-yl) = N[C@@H](CN1CCc2ccccc21)C(=O)O; Phe(4-COOH) = N[C@@H](Cc1ccc(C(=O)O)cc1)C(=O)O; h3Pal(5-CN) = N#Cc1cncc(CC[C@H](N)C(=O)O)c1; Pro(4R-NH2) = N[C@H]1CN[C@H](C(=O)O)C1; 1Nal = N[C@@H](Cc1cccc2ccccc12)C(=O)O; hTyr = N[C@@H](CCc1ccc(O)cc1)C(=O)O; 4Pal = N[C@@H](Cc1ccncc1)C(=O)O; Orn = NCCC[C@H](N)C(=O)O; dNMeA = CN[C@H](C)C(=O)O; Dab = NCC[C@H](N)C(=O)O; Dap = NC[C@H](N)C(=O)O; Aib = CC(C)(N)C(=O)O
molecular target: T1, Recombinant human IL-1β (Homo sapiens, UniProt P01584); test: IL-6 assay in MRC5 cells: inhibition of IL-1β induced IL-6 secretion (AlphaLISA); assay type: cell-based; details: inhibition of IL-1β induced IL-6 secretion in MRC5 cells; IL-1β pre-incubated 1 hour with compound; read-out: MRC5 IC50
T1 construct: purchased BioLegend 579404
T1 sequence (P01584 117-269): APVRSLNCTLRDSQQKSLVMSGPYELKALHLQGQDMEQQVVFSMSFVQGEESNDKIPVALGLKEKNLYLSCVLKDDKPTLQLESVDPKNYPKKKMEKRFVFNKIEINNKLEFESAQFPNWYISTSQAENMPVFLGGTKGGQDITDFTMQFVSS
Protocol: Procedure for IL-6 Assay in MRC5 Cells
The inhibition of IL-1β induced IL-6 secretion was evaluated in MRC5 cells. Recombinant human IL-1β (BioLegend 579404) at 2×EC80 concentration was prepared in seeding medium, EMEM (ATCC 30-2003) with 0.025% BSA (Sigma A9576), 1× penicillin/streptomycin (Gibco 15070-063), 1×NEAA (Gibco 11140-050), 1× GlutaMax (Gibco 35050-061), and 1× sodium pyruvate (Gibco 11360-070). 20 μL of IL-1β was added to a 384-well collagen-coated plate (Corning 354664) and pre-incubated at ambient temperature for 1 hour with 200 nL of compound dispensed using an ECHO 555 liquid handler. Human lung fibroblast MRC5 cells (ATCC CCL-171) were added at a density of 3000 cells/20 μL per well. The cells were prepared by passaging three times in growth medium, EMEM (ATCC 30-2003) with 10% fetal bovine serum (Gibco 16140-071), 1× penicillin/streptomycin (Gibco 15070-063), 1×NEAA (Gibco 11140-050), 1× GlutaMax (Gibco 35050-061), and 1× sodium pyruvate (Gibco 11360-070) in collagen-coated T175 flasks (Greiner 661950) and harvested in seeding medium after 5 minutes of 0.25% trypsin-EDTA (Gibco 25200-056) digestion. The 384-well collagen-coated plate, containing a final volume of 40 μL, was incubated at 37° C., 5% CO2 overnight. 5 μL of the conditioned medium was transferred to a 384-well AlphaLISA plate (PerkinElmer 6005350) for detection of IL-6 using the human AlphaLISA IL-6 kit (PerkinElmer AL223F) as per the manufacturer's protocol. 20 μL of the acceptor bead/biotinylated antibody mix was added to the 384-well AlphaLISA plate and incubated for 1 hour at ambient temperature. The donor bead mix was protected from light and 25 μL was added to the plate and incubated for 30 minutes at ambient temperature. The AlphaLISA plate was read on an EnVision multimode plate reader (Perkin Elmer model 2104) using the AlphaScreen setting (laser exc at 680 nm and emis at 570 nm). Dose response curves and IC50 values were analyzed using a 4-parameter logistic equation in Spotfire software (Tibco, Palo Alto, CA).

`C[C@@H]1C(=O)NCC(=O)N[C@@H](Cc2ccc(-c3ccc(C(=O)O)cc3)cc2)C(=O)N[C@@H](Cn2ncc3ccccc32)C(=O)N[C@@H](CN)C(=O)N[C@H](C)C(=O)N[C@@H](CCc2ccc(O)cc2)C(=O)N[C@@H](Cc2ccc(-c3ccc(C(=O)O)cc3)cc2)C(=O)N[C@@H](Cc2c[nH]c3ccccc23)C(=O)N[C@@H](Cc2ccc(C(=O)O)cc2)C(=O)NCC(=O)N2C[C@H](N)C[C@H]2C(=O)N[C@@H]([C@@H](C)c2cccc3ccccc23)C(=O)N[C@@H](CC(=O)O)C(=O)N1C` [Example 13] (cyclo([Bip(4'-COOH)]W[Phe(4-COOH)]G[Pro(4R-NH2)][1Nal(3S-Me)]D[dNMeA]G[Bip(4'-COOH)][Ala(indazol-1-yl)][Dap][dA][hTyr])) and `C[C@@H]1C(=O)NCC(=O)N[C@@H](Cc2ccc(-c3ccc(C(=O)O)cc3)cc2)C(=O)N[C@@H](CN2CCc3ccccc32)C(=O)N[C@@H](CN)C(=O)N[C@H](C)C(=O)N[C@@H](CCc2ccc(O)cc2)C(=O)N[C@@H](Cc2ccc(-c3ccc(C(=O)O)cc3)cc2)C(=O)N[C@@H](Cc2c[nH]c3ccccc23)C(=O)N[C@@H](Cc2ccc(C(=O)O)cc2)C(=O)NCC(=O)N2C[C@H](N)C[C@H]2C(=O)N[C@@H]([C@@H](C)c2cccc3ccccc23)C(=O)N[C@@H](CC(=O)O)C(=O)N1C` [Example 14] (cyclo([Bip(4'-COOH)]W[Phe(4-COOH)]G[Pro(4R-NH2)][1Nal(3S-Me)]D[dNMeA]G[Bip(4'-COOH)][Ala(indolin-1-yl)][Dap][dA][hTyr])) are within 1.5-fold of each other in IC50: 31 pM for the first, 29.7 pM for the second.

`C[C@@H]1C(=O)NCC(=O)N[C@@H](Cc2ccc(-c3ccc(C(=O)O)cc3)cc2)C(=O)N[C@@H](Cc2cccc3ccccc23)C(=O)N[C@@H](CCN)C(=O)NC(C)(C)C(=O)NCC(=O)N[C@@H](Cc2ccc(-c3ccc(C(=O)O)cc3)cc2)C(=O)N[C@@H](Cc2c[nH]c3ccccc23)C(=O)N[C@@H](Cc2ccc(C(=O)O)cc2)C(=O)NCC(=O)N2C[C@H](N)C[C@H]2C(=O)N[C@@H]([C@@H](C)c2cccc3ccccc23)C(=O)N[C@@H](CC(=O)O)C(=O)N1C` [Example 15] (cyclo([Bip(4'-COOH)]W[Phe(4-COOH)]G[Pro(4R-NH2)][1Nal(3S-Me)]D[dNMeA]G[Bip(4'-COOH)][1Nal][Dab][Aib]G)) and `C[C@@H]1C(=O)NCC(=O)N[C@@H](Cc2ccc(-c3ccc(C(=O)O)cc3)cc2)C(=O)N[C@@H](Cc2cccc3ccccc23)C(=O)N[C@@H](CCCN)C(=O)NC(C)(C)C(=O)NCC(=O)N[C@@H](Cc2ccc(-c3ccc(C(=O)O)cc3)cc2)C(=O)N[C@@H](Cc2c[nH]c3ccccc23)C(=O)N[C@@H](Cc2ccc(C(=O)O)cc2)C(=O)NCC(=O)N2C[C@H](N)C[C@H]2C(=O)N[C@@H]([C@@H](C)c2cccc3ccccc23)C(=O)N[C@@H](CC(=O)O)C(=O)N1C` [Example 20] (cyclo([Bip(4'-COOH)]W[Phe(4-COOH)]G[Pro(4R-NH2)][1Nal(3S-Me)]D[dNMeA]G[Bip(4'-COOH)][1Nal][Orn][Aib]G)) are within 1.5-fold of each other in IC50: 654 pM for the first, 440 pM for the second.

Compared with `C[C@@H]1C(=O)NCC(=O)N[C@@H](Cc2ccc(-c3ccc(C(=O)O)cc3)cc2)C(=O)N[C@@H](Cc2cccc3ccccc23)C(=O)N[C@@H](CCN)C(=O)NC(C)(C)C(=O)N[C@@H](CCc2ccc(O)cc2)C(=O)N[C@@H](Cc2ccc(-c3ccc(C(=O)O)cc3)cc2)C(=O)N[C@@H](Cc2c[nH]c3ccccc23)C(=O)N[C@@H](Cc2ccc(C(=O)O)cc2)C(=O)NCC(=O)N2C[C@H](N)C[C@H]2C(=O)N[C@@H]([C@@H](C)c2cccc3ccccc23)C(=O)N[C@@H](CC(=O)O)C(=O)N1C` [Example 16] (cyclo([Bip(4'-COOH)]W[Phe(4-COOH)]G[Pro(4R-NH2)][1Nal(3S-Me)]D[dNMeA]G[Bip(4'-COOH)][1Nal][Dab][Aib][hTyr])), `C[C@@H]1C(=O)NCC(=O)N[C@@H](Cc2ccc(-c3ccc(C(=O)O)cc3)cc2)C(=O)N[C@@H](Cc2cccc3ccccc23)C(=O)N[C@@H](CN)C(=O)NC(C)(C)C(=O)N[C@@H](CCc2cncc(C#N)c2)C(=O)N[C@@H](Cc2ccc(-c3ccc(C(=O)O)cc3)cc2)C(=O)N[C@@H](Cc2c[nH]c3ccccc23)C(=O)N[C@@H](Cc2ccc(C(=O)O)cc2)C(=O)NCC(=O)N2C[C@H](N)C[C@H]2C(=O)N[C@@H]([C@@H](C)c2cccc3ccccc23)C(=O)N[C@@H](CC(=O)O)C(=O)N1C` [Example 18] (cyclo([Bip(4'-COOH)]W[Phe(4-COOH)]G[Pro(4R-NH2)][1Nal(3S-Me)]D[dNMeA]G[Bip(4'-COOH)][1Nal][Dap][Aib][h3Pal(5-CN)])) is 2-fold lower in IC50: 175 pM for the first, 88.5 pM for the second. The second is the more potent here.

Going from `C[C@@H]1C(=O)NCC(=O)N[C@@H](Cc2ccc(-c3ccc(C(=O)O)cc3)cc2)C(=O)N[C@@H](Cc2cccc3ccccc23)C(=O)N[C@@H](CN)C(=O)NC(C)(C)C(=O)NCC(=O)N[C@@H](Cc2ccc(-c3ccc(C(=O)O)cc3)cc2)C(=O)N[C@@H](Cc2c[nH]c3ccccc23)C(=O)N[C@@H](Cc2ccc(C(=O)O)cc2)C(=O)NCC(=O)N2C[C@H](N)C[C@H]2C(=O)N[C@@H]([C@@H](C)c2cccc3ccccc23)C(=O)N[C@@H](CC(=O)O)C(=O)N1C` [Example 17] (cyclo([Bip(4'-COOH)]W[Phe(4-COOH)]G[Pro(4R-NH2)][1Nal(3S-Me)]D[dNMeA]G[Bip(4'-COOH)][1Nal][Dap][Aib]G)) to `CC(C)C[C@@H]1NC(=O)[C@H](Cc2cccc3ccccc23)NC(=O)[C@H](Cc2ccc(-c3ccc(C(=O)O)cc3)cc2)NC(=O)CNC(=O)[C@@H](C)N(C)C(=O)[C@H](CC(=O)O)NC(=O)[C@H]([C@@H](C)c2cccc3ccccc23)NC(=O)[C@@H]2C[C@@H](N)CN2C(=O)CNC(=O)[C@H](Cc2ccc(C(=O)O)cc2)NC(=O)[C@H](Cc2c[nH]c3ccccc23)NC(=O)[C@H](Cc2ccc(-c3ccc(C(=O)O)cc3)cc2)NC(=O)CNC(=O)C(C)(C)NC1=O` [Example 19] (cyclo([Bip(4'-COOH)]W[Phe(4-COOH)]G[Pro(4R-NH2)][1Nal(3S-Me)]D[dNMeA]G[Bip(4'-COOH)][1Nal]L[Aib]G)), the IC50 falls from 222 pM to 118 pM (1.9-fold).

`C[C@@H]1C(=O)NCC(=O)N[C@@H](Cc2ccc(-c3ccc(C(=O)O)cc3)cc2)C(=O)N[C@@H](Cc2ccncc2)C(=O)N[C@@H](CN)C(=O)N[C@H](C)C(=O)N[C@@H](CCc2cncc(C#N)c2)C(=O)N[C@@H](Cc2ccc(-c3ccc(C(=O)O)cc3)cc2)C(=O)N[C@@H](Cc2c[nH]c3ccccc23)C(=O)N[C@@H](Cc2ccc(C(=O)O)cc2)C(=O)NCC(=O)N2C[C@H](N)C[C@H]2C(=O)N[C@@H]([C@@H](C)c2cccc3ccccc23)C(=O)N[C@@H](CC(=O)O)C(=O)N1C` [Example 21] (cyclo([Bip(4'-COOH)]W[Phe(4-COOH)]G[Pro(4R-NH2)][1Nal(3S-Me)]D[dNMeA]G[Bip(4'-COOH)][4Pal][Dap][dA][h3Pal(5-CN)])) and `C[C@@H]1C(=O)NCC(=O)N[C@@H](Cc2ccc(-c3ccc(C(=O)O)cc3)cc2)C(=O)N[C@@H](Cc2ccncc2)C(=O)N[C@@H](CN)C(=O)N[C@H](C)C(=O)N[C@@H](CCc2ccc(O)cc2)C(=O)N[C@@H](Cc2ccc(-c3ccc(C(=O)O)cc3)cc2)C(=O)N[C@@H](Cc2c[nH]c3ccccc23)C(=O)N[C@@H](Cc2ccc(C(=O)O)cc2)C(=O)NCC(=O)N2C[C@H](N)C[C@H]2C(=O)N[C@@H]([C@@H](C)c2cccc3ccccc23)C(=O)N[C@@H](CC(=O)O)C(=O)N1C` [Example 22] (cyclo([Bip(4'-COOH)]W[Phe(4-COOH)]G[Pro(4R-NH2)][1Nal(3S-Me)]D[dNMeA]G[Bip(4'-COOH)][4Pal][Dap][dA][hTyr])) are within 1.5-fold of each other in IC50: 23.4 pM for the first, 32.5 pM for the second.
